Experimental data published in ChEMBL document CHEMBL1201862, “PubChem BioAssay data set” (2004).
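Growth conditions: 96-well plates. Treatment: test compound, 48 hours, 5 concentrations. Analysis: linear interpolation between bracketing concentrations; unreached endpoints set to highest concentration. GI50 marks 50% less growth.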 The source made the active and inactive calls. Rule as the data show it: active = GI50 up to about 1.1 µM and inactive = higher.

Experiments:
Experiment in all cases: growth of human tumour cells (NCI), 48 h
[1] = test system: A498
[2] = test system: A549
[3] = test system: ACHN
[4] = test system: HL-60
[5] = test system: HOP-62
[6] = test system: HOP-92
[7] = test system: K562
[8] = test system: KM12
[9] = test system: M19-MEL
[10] = test system: OVCAR-4
[11] = test system: RXF 393
[12] = test system: SF-295
[13] = test system: SK-MEL-28
[14] = test system: SK-MEL-2
[15] = test system: SW-620
[16] = test system: UO-31
[17] = test system: U-251
[18] = test system: BT-549
[19] = test system: MDA-MB-435
[20] = test system: SR

Measured: GI50

O=C(Cn1ccnc1[N+](=O)[O-])c1ccccc1
inactive: [1] > 100 µM | [2] > 100 µM | [3] > 100 µM | [4] > 100 µM | [5] > 100 µM | [6] > 100 µM | [7] > 100 µM | [8] > 100 µM | [9] > 100 µM | [10] > 100 µM | [11] > 100 µM | [12] > 100 µM | [13] > 100 µM | [14] > 100 µM | [15] > 100 µM | [16] > 100 µM

Cc1cccc(C2=NC(C)(C)C(C)(C)N=C2c2cccc(C)n2)n1
inactive: [1] > 100 µM | [2] > 100 µM | [3] > 100 µM | [4] 53.6 µM | [5] > 100 µM | [6] > 100 µM | [7] 41.8 µM | [8] > 100 µM | [9] > 100 µM | [10] > 100 µM | [11] > 100 µM | [12] > 100 µM | [13] > 100 µM | [14] > 100 µM | [15] > 100 µM | [17] > 100 µM | [16] > 100 µM

CCCCCCCCCCCCN(CC(O)C(O)C(OC1OC(CO)C(O)C(O)C1O)C(O)CO)C(=O)CCCCCCCCCCC (centres undefined)
inactive: [1] 24.7 µM | [2] 23.6 µM | [3] 16.9 µM | [18] 20.4 µM | [4] 33.7 µM | [5] 25.8 µM | [6] 21.9 µM | [7] 19 µM | [8] 20.2 µM | [19] 16.8 µM | [10] 21.4 µM | [11] 26.9 µM | [12] 19 µM | [13] 17.5 µM | [14] 23 µM | [20] 33.1 µM | [15] 19 µM | [17] 18.6 µM | [16] 21.5 µM

CC(C)NC(=O)OCc1c(COC(=O)NC(C)C)c(-c2ccc[n+](COC(=O)CC(C)(C)C)c2)n2c1CCC2
inactive: [1] > 100 µM | [2] > 100 µM | [3] 35.6 µM | [18] > 100 µM | [4] > 100 µM | [5] 56.6 µM | [6] > 100 µM | [7] > 100 µM | [8] > 100 µM | [19] > 100 µM | [10] > 100 µM | [11] 38.7 µM | [12] 60.5 µM | [13] > 100 µM | [14] > 100 µM | [20] 71.1 µM | [15] > 100 µM | [17] 94.8 µM | [16] 93.8 µM

N#CC(C(=N/NC(N)=S)/C(=N/NC(N)=S)C(C#N)c1ccc(Cl)cc1)c1ccc(Cl)cc1 (centres undefined)
inactive: [1] > 100 µM | [2] > 100 µM | [3] > 100 µM | [5] > 100 µM | [6] > 100 µM | [7] 34.9 µM | [8] > 100 µM | [9] > 100 µM | [10] > 100 µM | [11] 47.3 µM | [12] > 100 µM | [13] 81.3 µM | [14] > 100 µM | [15] 41.7 µM | [17] > 100 µM | [16] > 100 µM

Cc1ccc(S(=O)(=O)OI(O)CC(F)(F)F)cc1
inactive: [1] > 100 µM | [2] > 100 µM | [3] > 100 µM | [18] > 100 µM | [4] > 100 µM | [5] > 100 µM | [6] > 100 µM | [7] > 100 µM | [8] > 100 µM | [19] > 100 µM | [10] > 100 µM | [11] > 100 µM | [12] > 100 µM | [13] > 100 µM | [14] > 100 µM | [20] > 100 µM | [15] > 100 µM | [17] > 100 µM | [16] > 100 µM

CC1=N/C(=C\c2ccc(/C=C3/N=C(C)OC3=O)cc2)C(=O)O1
inactive: [1] > 100 µM | [2] > 100 µM | [3] > 100 µM | [5] > 100 µM | [6] > 100 µM | [7] > 100 µM | [8] > 100 µM | [9] > 100 µM | [10] > 100 µM | [11] > 100 µM | [13] > 100 µM | [14] > 100 µM | [15] > 100 µM | [17] > 100 µM | [16] > 100 µM

Nn1c(S)nnc1CCCCCCCCc1nnc(S)n1N
inactive: [1] > 100 µM | [2] > 100 µM | [3] > 100 µM | [18] > 100 µM | [4] > 100 µM | [5] > 100 µM | [6] > 100 µM | [7] > 100 µM | [8] > 100 µM | [19] > 100 µM | [10] > 100 µM | [11] > 100 µM | [12] > 100 µM | [13] > 100 µM | [14] > 100 µM | [20] > 100 µM | [15] > 100 µM | [17] > 100 µM | [16] > 100 µM

COc1cccc(N2C(=O)CS(=O)(=O)C2c2cccc(Oc3ccccc3)c2)c1 (centres undefined)
inactive: [1] 10.1 µM | [2] 26.7 µM | [3] 20.1 µM | [18] 20.1 µM | [4] 11 µM | [5] 25.2 µM | [6] 12.7 µM | [7] 3.6 µM | [8] 7.67 µM | [19] 3.56 µM | [10] 28.6 µM | [11] 16.5 µM | [12] 16 µM | [13] 34 µM | [14] 14.2 µM | [20] 3.13 µM | [15] 15.6 µM | [17] 16.7 µM | [16] 34.4 µM

N#C[C@](CO)(NC(=O)OCc1ccccc1)C(F)F
inactive: [1] > 100 µM | [2] > 100 µM | [3] > 100 µM | [18] > 100 µM | [4] > 100 µM | [5] > 100 µM | [6] > 100 µM | [7] > 100 µM | [8] > 100 µM | [19] > 100 µM | [10] > 100 µM | [11] > 100 µM | [12] > 100 µM | [13] > 100 µM | [14] > 100 µM | [20] > 100 µM | [15] > 100 µM | [17] > 100 µM | [16] > 100 µM

CCC(/C(=N\Nc1c(Cl)cc(Cl)cc1Cl)c1ccccc1)n1ccnc1C (centres undefined)
inactive: [1] 14.2 µM | [2] 13.8 µM | [3] 5.52 µM | [4] 3.82 µM | [6] 4.06 µM | [7] 5.07 µM | [8] 10.4 µM | [9] 14.8 µM | [10] 10.5 µM | [11] > 10 µM | [12] 11.5 µM | [13] 14.7 µM | [14] 13.3 µM | [15] 15.2 µM | [17] 12.8 µM | [16] 5.97 µM
